Assay results: patent US7442693B2, “Diazepine compounds as ligands of the melanocortin 1 and/or 4 receptors” (SmithKline Beecham Corporation, priority 2004, dated 2008)

Legend:
[1] = target: T1, human MC4R (Homo sapiens, UniProt P32245); experiment: CHO-6xCRE-luc+ reporter gene assay, MC4R agonist activity; format: cell-based; details: for Emax: 4 h, percentage of the fold stimulation in the NDP-αMSH control (1×10^−7 M), human MC4R, read-out: % Max MSH; for EC50: CHO-6xCRE-luc+ cells expressing human MC4R, 4 h at 37° C., luciferase activity
T1 construct: expressed in transfected cells; host or cells: CHO-6xCRE-luc+ reporter cell line
Method: (§1) CHO-6×CRE-luc^+ reporter cell lines expressing human MC1R, MC3R, MC4R, and MC5R (GenBank accession numbers X65634, L06155, S77415 and U08353) and the CHO host reporter gene cell line were propagated in complete medium in T225 flasks. Forty-eight hours prior to assay, cells were harvested with 2 ml of 0.05% trypsin, washed with complete medium and plated at a concentration of 4000 cells/well in complete medium. Sixteen hours prior to the assay, the medium was removed from the cells and replaced with 90 μl/well of serum-free DMEM/F12. At the time of the assay the compounds were added in a 10 μl volume and plates were incubated for 4 h at 37° C. in a cell culture incubator. The medium was aspirated followed by the addition of 50 μl of a 1:1 mixture of LucLite™ and dPBS containing 1 mM CaCl2 and 1 mM MgCl2. The plates were then sealed and subjected to dark adaptation at room temperature for 10 min before luciferase activity was quantitated on a TopCount™ microplate scintillation counter (Packard) using 3 s/well count time. The NDP-αMSH and 154N-5 concentration-response curve data were expressed as a percentage of the fold stimulation in the NDP-αMSH control for each receptor subtype. The control value is the average of duplicate wells treated with 1×10^−7 M NDP-αMSH.

[2] = target: T2, human MC1R (Homo sapiens, UniProt Q01726); experiment: CHO-6xCRE-luc+ reporter gene assay, MC1R agonist activity; format: cell-based; details: for Emax: 4 h, read-out: % of MSH
T2 construct: expressed in transfected cells; host or cells: CHO-6xCRE-luc+ reporter cell line
Method: as §1

[3] = percentage of the fold stimulation in the NDP-αMSH control (1×10^−7 M), human MC1R
[4] = CHO-6xCRE-luc+ cells expressing human MC1R, 4 h at 37° C., luciferase activity

T2 sequence (Q01726 whole entry): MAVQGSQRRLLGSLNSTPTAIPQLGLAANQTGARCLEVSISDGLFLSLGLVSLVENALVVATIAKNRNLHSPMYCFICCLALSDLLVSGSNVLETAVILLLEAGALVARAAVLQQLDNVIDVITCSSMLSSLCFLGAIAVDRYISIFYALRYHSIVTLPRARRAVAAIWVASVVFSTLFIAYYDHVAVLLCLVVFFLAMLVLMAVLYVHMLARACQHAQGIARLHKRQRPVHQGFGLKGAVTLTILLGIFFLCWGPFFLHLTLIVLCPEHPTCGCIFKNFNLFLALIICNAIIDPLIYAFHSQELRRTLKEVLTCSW
T1 sequence (P32245 whole entry): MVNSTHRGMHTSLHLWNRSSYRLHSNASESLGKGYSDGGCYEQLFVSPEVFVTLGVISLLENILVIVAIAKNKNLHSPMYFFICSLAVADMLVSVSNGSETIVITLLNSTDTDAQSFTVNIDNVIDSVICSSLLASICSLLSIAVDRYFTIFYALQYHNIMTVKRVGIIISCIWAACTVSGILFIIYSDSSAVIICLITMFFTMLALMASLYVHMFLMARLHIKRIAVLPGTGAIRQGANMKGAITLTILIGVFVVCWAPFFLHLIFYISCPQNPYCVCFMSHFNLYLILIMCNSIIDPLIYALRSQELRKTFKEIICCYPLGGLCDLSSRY

## COc1ccc(N(C(=O)CN2C=CN(c3ccccc3)C(=O)C(Cc3n[nH]c4ccccc34)C2=O)C(C)C)cc1 (single isomer, unassigned) [Example 2]
[1]
  Emax: 51%
  EC50: 282 nM
[2]; [3]
  Emax: 85%
[2]; [4]
  EC50: 18.6 nM

## O=C1C(Cc2n[nH]c3ccccc23)C(=O)N(c2ccccc2)C=CN1CC(=O)N1CCCCc2ccccc21 (single isomer, unassigned) [Example 18]
[2]; [3]
  Emax: 87%
[2]; [4]
  EC50: 1.58 nM

## CC(C)N(C(=O)CN1C=CN(c2ccccc2)C(=O)C(Cc2n[nH]c3cc(F)ccc23)C1=O)c1ccccc1 (single isomer, unassigned) [Example 21]
[2]; [3]
  Emax: 79%
[2]; [4]
  EC50: 35.5 nM

## O=C1C(Cc2n[nH]c3ccccc23)C(=O)N(c2ccccc2)C=CN1CC(=O)N1CCCCc2ccccc21 (single isomer, unassigned) [Example 24]
[2]; [4]
  pEC50: 8.80
[2]; [3]
  % of MSH: 86%

## COc1ccc(N(C(=O)CN2C=CN(c3ccccc3)C(=O)C(Cc3n[nH]c4ccccc34)C2=O)C(C)C)cc1 (stereo not shown) [Example 1]
[1]
  Emax: 56%
  EC50: 417 nM
[2]; [3]
  Emax: 68%
[2]; [4]
  EC50: 29.5 nM

## CC(C)N(C(=O)CN1C=CN(c2ccccc2)C(=O)C(Cc2n[nH]c3ccccc23)C1=O)c1ccc(Cl)cc1 (stereo not shown) [Example 3]
[1]
  Emax: 58%
  EC50: 42.7 nM
[2]; [3]
  Emax: 73%
[2]; [4]
  EC50: 112 nM

## Cc1cc(OC(F)(F)F)ccc1N(C(=O)CN1C=CN(c2ccccc2)C(=O)C(Cc2n[nH]c3ccccc23)C1=O)C(C)C (stereo not shown) [Example 4]
[1]
  Emax: 52%
  EC50: 44.7 nM
[2]; [3]
  Emax: 74%
[2]; [4]
  EC50: 70.8 nM

## COC1(Cc2n[nH]c3ccccc23)C(=O)N(CC(=O)N(c2ccc(F)cc2)C(C)C)C=CN(c2ccccc2)C1=O (stereo not shown) [Example 5, 2-[2,4-dioxo-3-(1H-indazol-3-ylmethylene)-3-methoxy-5-phenyl-2,3,4,5-tetrahydro-1H-1,5-diazepin-1-yl]-N-(4-fluorophenyl) N-isopropylacetamide]
[1]
  Emax: 78%
  EC50: 151 nM

## CC(C)N(C(=O)CN1C=CN(c2ccccc2)C(=O)C(Cc2n[nH]c3ccccc23)C1=O)c1ccc(OC(F)(F)F)cc1 (stereo not shown) [Example 6]
[1]
  Emax: 51%
  EC50: 204 nM
[2]; [3]
  Emax: 91%
[2]; [4]
  EC50: 22.4 nM

## COc1cccc2c1CCCCN2C(=O)CN1C=CN(c2ccccc2)C(=O)C(Cc2n[nH]c3ccccc23)C1=O (stereo not shown) [Example 7]
[1]
  Emax: 77%
  EC50: 347 nM
[2]; [3]
  Emax: 50%
[2]; [4]
  EC50: 40.7 nM

## CCc1ccc(N(C(=O)CN2C=CN(c3ccccc3)C(=O)C(Cc3n[nH]c4ccccc34)C2=O)C(C)C)cc1 (stereo not shown) [Example 8]
[1]
  Emax: 53%
  EC50: 347 nM
[2]; [3]
  Emax: 72%
[2]; [4]
  EC50: 148 nM

## CCCc1ccc(N(C(=O)CN2C=CN(c3ccccc3)C(=O)C(Cc3n[nH]c4ccccc34)C2=O)C(C)C)cc1 (stereo not shown) [Example 9]
[1]
  Emax: 65%
  EC50: 389 nM
[2]; [3]
  Emax: 37%
[2]; [4]
  EC50: 200 nM

## CC(C)N(C(=O)CN1C=CN(c2ccccc2)C(=O)C(Cc2n[nH]c3ccccc23)C1=O)c1ccc(I)cc1 (stereo not shown) [Example 10]
[1]
  Emax: 49%
  EC50: 398 nM
[2]; [3]
  Emax: 84%
[2]; [4]
  EC50: 72.4 nM

## CC(C)N(C(=O)CN1C=CN(c2ccccc2)C(=O)C(Cc2n[nH]c3ccccc23)C1=O)c1ccc(C(F)(F)F)cc1 (stereo not shown) [Example 11]
[1]
  Emax: 55%
  EC50: 417 nM
[2]; [3]
  Emax: 68%
[2]; [4]
  EC50: 145 nM

## COc1ccc(N(C(=O)CN2C=CN(c3ccccc3)C(=O)C(Cn3c(=O)[nH]c4ccccc43)C2=O)C(C)C)cc1 (stereo not shown) [Example 12]
[1]
  Emax: 56%
  EC50: 437 nM
[2]; [3]
  Emax: 61%
[2]; [4]
  EC50: 19.5 nM

## CCOc1ccc(N(C(=O)CN2C=CN(c3ccccc3)C(=O)C(Cc3n[nH]c4ccccc34)C2=O)C(C)C)cc1 (stereo not shown) [Example 13]
[1]
  Emax: 65%
  EC50: 513 nM
[2]; [3]
  Emax: 64%
[2]; [4]
  EC50: 110 nM

## Cc1ccc(N(C(=O)CN2C=CN(c3ccccc3)C(=O)C(Cc3n[nH]c4ccccc34)C2=O)C(C)C)cc1 (stereo not shown) [Example 14]
[2]; [3]
  Emax: 69%
[2]; [4]
  EC50: 269 nM

## O=C1C(Cc2n[nH]c3cc(F)ccc23)C(=O)N(c2ccccc2)C=CN1CC(=O)N1CCCCc2ccccc21 (stereo not shown) [Example 15]
[2]; [3]
  Emax: 61%
[2]; [4]
  EC50: 1.58 nM

## O=C1C(Cc2n[nH]c3ccccc23)C(=O)N(c2ccccc2)C=CN1CC(=O)N1CCCCc2ccccc21 (stereo not shown) [Example 16]
[2]; [3]
  Emax: 61%
[2]; [4]
  EC50: 1.58 nM

## COc1ccc(N(C(=O)CN2C=CN(c3ccccc3)C(=O)C(Cc3n[nH]c4cc(F)ccc34)C2=O)C(C)C)cc1 (stereo not shown) [Example 17]
[2]; [3]
  Emax: 83%
[2]; [4]
  EC50: 1.58 nM

## CC(C)N(C(=O)CN1C=CN(c2ccccc2)C(=O)C(Cc2n[nH]c3cc(F)ccc23)C1=O)c1ccc(F)cc1 (stereo not shown) [Example 19]
[2]; [3]
  Emax: 53%
[2]; [4]
  EC50: 14.1 nM

## CC(C)N(C(=O)CN1C=CN(c2ccccc2)C(=O)C(Cc2n[nH]c3cc(F)ccc23)C1=O)c1ccccc1 (stereo not shown) [Example 20]
[2]; [3]
  Emax: 51%
[2]; [4]
  EC50: 191 nM

## CC(C)N(C(=O)CN1C=CN(c2ccccc2)C(=O)C(Cc2n[nH]c3ccccc23)C1=O)c1ccc(F)cc1 (stereo not shown) [Example 22]
[2]; [3]
  Emax: 54%
[2]; [4]
  EC50: 50.1 nM

## CCCN(C(=O)CN1C=CN(c2ccccc2)C(=O)C(Cc2n[nH]c3ccccc23)C1=O)c1ccc(OC)cc1 (stereo not shown) [Example 23]
[2]; [3]
  Emax: 72%
[2]; [4]
  EC50: 51.3 nM

## CCN(C(=O)CN1C=CN(c2ccccc2)C(=O)C(Cc2n[nH]c3ccccc23)C1=O)c1ccc(OC)cc1 (stereo not shown) [Example 25]
[2]; [3]
  Emax: 72%
[2]; [4]
  EC50: 64.6 nM

## CC(C)Oc1ccc(N(C(=O)CN2C=CN(c3ccccc3)C(=O)C(Cc3n[nH]c4ccccc34)C2=O)C(C)C)cc1 (stereo not shown) [Example 26]
[2]; [3]
  Emax: 41%
[2]; [4]
  EC50: 74.1 nM

## COc1ccc(N(C(=O)CN2C=CN(c3ccccc3)C(=O)C(Cc3n[nH]c4c3CCCC4)C2=O)C(C)C)cc1 (stereo not shown) [Example 27]
[2]; [3]
  Emax: 95%
[2]; [4]
  EC50: 129 nM

## CC(C)N(C(=O)CN1C=CN(c2ccccc2)C(=O)C(Cc2n[nH]c3ccccc23)C1=O)c1ccc(O)cc1 (stereo not shown) [Example 28]
[2]; [3]
  Emax: 79%
[2]; [4]
  EC50: 158 nM

## COc1ccc(N(C(=O)CN2C=CN(c3ccccc3)C(=O)C(Cn3cnc4ccccc43)C2=O)C(C)C)cc1 (stereo not shown) [Example 29]
[2]; [3]
  Emax: 103%
[2]; [4]
  EC50: 182 nM

## CC1CCc2ccccc2N1C(=O)CN1C=CN(c2ccccc2)C(=O)C(Cc2n[nH]c3ccccc23)C1=O (stereo not shown) [Example 30]
[2]; [3]
  Emax: 69%
[2]; [4]
  EC50: 204 nM

## CC(C)c1ccc(N(C(=O)CN2C=CN(c3ccccc3)C(=O)C(Cc3n[nH]c4ccccc34)C2=O)C(C)C)cc1 (stereo not shown) [Example 31]
[2]; [3]
  Emax: 40%
[2]; [4]
  EC50: 224 nM

## CC(C)N(C(=O)CN1C=CN(c2ccccc2)C(=O)C(Cc2n[nH]c3ccccc23)C1=O)c1ccccc1 (stereo not shown) [Example 32]
[2]; [3]
  Emax: 54%
[2]; [4]
  EC50: 295 nM
